Reference: ChEMBL document CHEMBL5678818, “Discovery of potent SOS1 inhibitors that block RAS activation via disruption of the RAS-SOS1 interaction” (Proc Natl Acad Sci U S A, 2019)

Columns and labels:
[1] = target: Ephrin type-A receptor 2 (Homo sapiens) (UniProt P29317); assay: Inhibition of EPHA2 (unknown origin) assessed as residual activity at 1000 nM by KINOMEscan analysis relative to control
[2] = target: T1, Tyrosine-protein kinase TXK (Homo sapiens) (UniProt P42681); assay: Inhibition of TXK (unknown origin) assessed as residual activity at 1000 nM by KINOMEscan analysis relative to control
T1 sequence (whole entry): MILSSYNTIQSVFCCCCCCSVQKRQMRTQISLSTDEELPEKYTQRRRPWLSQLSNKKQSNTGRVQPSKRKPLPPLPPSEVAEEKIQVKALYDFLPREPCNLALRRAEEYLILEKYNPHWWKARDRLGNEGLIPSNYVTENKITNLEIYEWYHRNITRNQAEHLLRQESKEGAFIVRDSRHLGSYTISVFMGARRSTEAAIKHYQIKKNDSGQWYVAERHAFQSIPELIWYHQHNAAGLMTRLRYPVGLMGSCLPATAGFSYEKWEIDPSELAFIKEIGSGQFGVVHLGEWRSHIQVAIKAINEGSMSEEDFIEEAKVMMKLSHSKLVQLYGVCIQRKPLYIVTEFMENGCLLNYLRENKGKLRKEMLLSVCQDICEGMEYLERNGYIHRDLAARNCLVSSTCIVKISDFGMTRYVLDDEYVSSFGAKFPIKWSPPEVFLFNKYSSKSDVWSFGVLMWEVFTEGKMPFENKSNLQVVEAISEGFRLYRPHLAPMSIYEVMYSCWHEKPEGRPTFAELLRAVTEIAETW

[3] = test system: Fibroblast growth factor receptor 3 (Homo sapiens), P22607 [G697C]; assay: Inhibition of FGFR3 G697C mutant (unknown origin) assessed as residual activity at 1000 nM by KINOMEscan analysis relative to control
[4] = target: Receptor tyrosine-protein kinase erbB-3 (Homo sapiens) (UniProt P21860); assay: Inhibition of ERBB3 (unknown origin) assessed as residual activity at 1000 nM by KINOMEscan analysis relative to control
[5] = target: Activin receptor type-1-like (Homo sapiens) (UniProt P37023); assay: Inhibition of ACVRL1 (unknown origin) assessed as residual activity at 1000 nM by KINOMEscan analysis relative to control
[6] = organism: Homo sapiens; assay: Inhibition of PIP5K1C (unknown origin) assessed as residual activity at 1000 nM by KINOMEscan analysis relative to control
[7] = target: Serine/threonine-protein kinase PAK 2 (Homo sapiens) (UniProt Q13177); assay: Inhibition of PAK2 (unknown origin) assessed as residual activity at 1000 nM by KINOMEscan analysis relative to control
[8] = target: Serine/threonine-protein kinase 16 (Homo sapiens) (UniProt O75716); assay: Inhibition of STK16 (unknown origin) assessed as residual activity at 1000 nM by KINOMEscan analysis relative to control
[9] = target: T2, Serine/threonine-protein kinase Sgk3 (Homo sapiens) (UniProt Q96BR1); assay: Inhibition of SGK3 (unknown origin) assessed as residual activity at 1000 nM by KINOMEscan analysis relative to control
T2 sequence (whole entry): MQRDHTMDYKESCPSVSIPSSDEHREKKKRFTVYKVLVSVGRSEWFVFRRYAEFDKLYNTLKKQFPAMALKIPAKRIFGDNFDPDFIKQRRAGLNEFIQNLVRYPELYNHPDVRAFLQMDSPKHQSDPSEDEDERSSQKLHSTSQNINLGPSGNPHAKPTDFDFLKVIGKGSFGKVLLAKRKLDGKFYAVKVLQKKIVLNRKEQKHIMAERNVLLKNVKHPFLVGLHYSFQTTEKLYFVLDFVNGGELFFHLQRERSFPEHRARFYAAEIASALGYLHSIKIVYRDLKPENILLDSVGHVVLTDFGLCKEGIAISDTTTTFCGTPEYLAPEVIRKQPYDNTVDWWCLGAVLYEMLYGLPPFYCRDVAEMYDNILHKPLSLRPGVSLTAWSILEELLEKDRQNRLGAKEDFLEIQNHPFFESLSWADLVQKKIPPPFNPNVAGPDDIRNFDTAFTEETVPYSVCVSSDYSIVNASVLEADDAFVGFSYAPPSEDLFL

[10] = target: cAMP-dependent protein kinase catalytic subunit alpha (Homo sapiens) (UniProt P17612); assay: Inhibition of PKAC-alpha (unknown origin) assessed as residual activity at 1000 nM by KINOMEscan analysis relative to control
[11] = test system: Serine/threonine-protein kinase B-raf (Homo sapiens), P15056 [V600E]; assay: Inhibition of BRAF V600E mutant (unknown origin) assessed as residual activity at 1000 nM by KINOMEscan analysis relative to control
[12] = target: T3, Bone morphogenetic protein receptor type-2 (Homo sapiens) (UniProt Q13873); assay: Inhibition of BMPR2 (unknown origin) assessed as residual activity at 1000 nM by KINOMEscan analysis relative to control
T3 sequence (whole entry): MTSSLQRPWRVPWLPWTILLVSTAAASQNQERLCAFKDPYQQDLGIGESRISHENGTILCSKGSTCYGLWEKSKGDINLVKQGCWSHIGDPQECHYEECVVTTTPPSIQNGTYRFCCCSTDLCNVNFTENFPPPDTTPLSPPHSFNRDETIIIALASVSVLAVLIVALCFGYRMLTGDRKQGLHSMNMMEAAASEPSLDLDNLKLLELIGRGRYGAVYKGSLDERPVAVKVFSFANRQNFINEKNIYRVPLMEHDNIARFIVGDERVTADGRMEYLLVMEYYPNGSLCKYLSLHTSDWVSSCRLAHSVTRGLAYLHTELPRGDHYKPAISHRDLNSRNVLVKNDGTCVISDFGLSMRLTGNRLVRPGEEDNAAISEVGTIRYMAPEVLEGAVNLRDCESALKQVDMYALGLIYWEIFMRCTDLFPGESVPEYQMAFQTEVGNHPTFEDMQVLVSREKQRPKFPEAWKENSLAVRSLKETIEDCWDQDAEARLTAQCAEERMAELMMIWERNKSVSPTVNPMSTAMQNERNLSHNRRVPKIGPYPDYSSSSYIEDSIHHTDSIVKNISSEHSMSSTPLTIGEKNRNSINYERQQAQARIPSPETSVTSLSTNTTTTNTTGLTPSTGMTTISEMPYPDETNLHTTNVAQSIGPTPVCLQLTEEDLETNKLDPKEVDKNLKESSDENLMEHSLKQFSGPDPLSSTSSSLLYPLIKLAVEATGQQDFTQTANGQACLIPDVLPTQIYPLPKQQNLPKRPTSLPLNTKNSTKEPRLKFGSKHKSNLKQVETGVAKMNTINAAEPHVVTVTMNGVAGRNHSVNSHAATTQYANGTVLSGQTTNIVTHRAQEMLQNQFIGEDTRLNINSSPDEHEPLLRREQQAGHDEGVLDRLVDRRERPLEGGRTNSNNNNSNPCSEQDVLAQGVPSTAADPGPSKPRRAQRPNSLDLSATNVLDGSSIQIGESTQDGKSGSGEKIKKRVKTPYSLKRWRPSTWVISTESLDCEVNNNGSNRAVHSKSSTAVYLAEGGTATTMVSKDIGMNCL

Chain of Serine/threonine-protein kinase 16 (Homo sapiens) (O75716 whole entry): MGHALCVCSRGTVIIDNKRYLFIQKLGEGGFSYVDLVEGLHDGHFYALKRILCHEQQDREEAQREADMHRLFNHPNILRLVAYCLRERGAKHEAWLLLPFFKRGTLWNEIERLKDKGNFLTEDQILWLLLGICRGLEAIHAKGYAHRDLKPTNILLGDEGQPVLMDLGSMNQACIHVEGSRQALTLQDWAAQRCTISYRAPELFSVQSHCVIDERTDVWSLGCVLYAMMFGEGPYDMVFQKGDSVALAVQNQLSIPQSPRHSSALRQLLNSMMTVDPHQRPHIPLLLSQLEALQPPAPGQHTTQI
Chain of Fibroblast growth factor receptor 3 (Homo sapiens), P22607 [G697C] (P22607 whole entry G697C): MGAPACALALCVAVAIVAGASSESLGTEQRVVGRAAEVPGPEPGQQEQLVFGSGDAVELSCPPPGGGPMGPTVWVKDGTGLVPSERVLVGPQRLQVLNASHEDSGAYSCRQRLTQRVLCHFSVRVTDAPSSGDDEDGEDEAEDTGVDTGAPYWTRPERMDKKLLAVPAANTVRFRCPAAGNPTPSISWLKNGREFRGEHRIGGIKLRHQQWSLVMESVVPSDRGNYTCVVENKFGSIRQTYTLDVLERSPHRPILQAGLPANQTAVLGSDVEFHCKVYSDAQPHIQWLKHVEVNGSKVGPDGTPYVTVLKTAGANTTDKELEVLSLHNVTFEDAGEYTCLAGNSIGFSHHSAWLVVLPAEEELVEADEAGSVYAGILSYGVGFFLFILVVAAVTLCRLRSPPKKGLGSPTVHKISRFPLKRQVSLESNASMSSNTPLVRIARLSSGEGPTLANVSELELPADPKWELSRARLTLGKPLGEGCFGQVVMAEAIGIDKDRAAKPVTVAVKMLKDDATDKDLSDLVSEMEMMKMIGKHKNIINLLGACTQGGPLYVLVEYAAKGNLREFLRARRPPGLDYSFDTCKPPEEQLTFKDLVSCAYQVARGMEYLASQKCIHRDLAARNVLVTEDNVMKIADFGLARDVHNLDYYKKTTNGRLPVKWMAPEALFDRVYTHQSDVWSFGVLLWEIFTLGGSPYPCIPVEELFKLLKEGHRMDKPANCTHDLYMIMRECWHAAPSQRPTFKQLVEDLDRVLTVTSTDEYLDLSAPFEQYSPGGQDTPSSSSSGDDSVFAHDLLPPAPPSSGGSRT
Chain of Receptor tyrosine-protein kinase erbB-3 (Homo sapiens) (P21860 whole entry): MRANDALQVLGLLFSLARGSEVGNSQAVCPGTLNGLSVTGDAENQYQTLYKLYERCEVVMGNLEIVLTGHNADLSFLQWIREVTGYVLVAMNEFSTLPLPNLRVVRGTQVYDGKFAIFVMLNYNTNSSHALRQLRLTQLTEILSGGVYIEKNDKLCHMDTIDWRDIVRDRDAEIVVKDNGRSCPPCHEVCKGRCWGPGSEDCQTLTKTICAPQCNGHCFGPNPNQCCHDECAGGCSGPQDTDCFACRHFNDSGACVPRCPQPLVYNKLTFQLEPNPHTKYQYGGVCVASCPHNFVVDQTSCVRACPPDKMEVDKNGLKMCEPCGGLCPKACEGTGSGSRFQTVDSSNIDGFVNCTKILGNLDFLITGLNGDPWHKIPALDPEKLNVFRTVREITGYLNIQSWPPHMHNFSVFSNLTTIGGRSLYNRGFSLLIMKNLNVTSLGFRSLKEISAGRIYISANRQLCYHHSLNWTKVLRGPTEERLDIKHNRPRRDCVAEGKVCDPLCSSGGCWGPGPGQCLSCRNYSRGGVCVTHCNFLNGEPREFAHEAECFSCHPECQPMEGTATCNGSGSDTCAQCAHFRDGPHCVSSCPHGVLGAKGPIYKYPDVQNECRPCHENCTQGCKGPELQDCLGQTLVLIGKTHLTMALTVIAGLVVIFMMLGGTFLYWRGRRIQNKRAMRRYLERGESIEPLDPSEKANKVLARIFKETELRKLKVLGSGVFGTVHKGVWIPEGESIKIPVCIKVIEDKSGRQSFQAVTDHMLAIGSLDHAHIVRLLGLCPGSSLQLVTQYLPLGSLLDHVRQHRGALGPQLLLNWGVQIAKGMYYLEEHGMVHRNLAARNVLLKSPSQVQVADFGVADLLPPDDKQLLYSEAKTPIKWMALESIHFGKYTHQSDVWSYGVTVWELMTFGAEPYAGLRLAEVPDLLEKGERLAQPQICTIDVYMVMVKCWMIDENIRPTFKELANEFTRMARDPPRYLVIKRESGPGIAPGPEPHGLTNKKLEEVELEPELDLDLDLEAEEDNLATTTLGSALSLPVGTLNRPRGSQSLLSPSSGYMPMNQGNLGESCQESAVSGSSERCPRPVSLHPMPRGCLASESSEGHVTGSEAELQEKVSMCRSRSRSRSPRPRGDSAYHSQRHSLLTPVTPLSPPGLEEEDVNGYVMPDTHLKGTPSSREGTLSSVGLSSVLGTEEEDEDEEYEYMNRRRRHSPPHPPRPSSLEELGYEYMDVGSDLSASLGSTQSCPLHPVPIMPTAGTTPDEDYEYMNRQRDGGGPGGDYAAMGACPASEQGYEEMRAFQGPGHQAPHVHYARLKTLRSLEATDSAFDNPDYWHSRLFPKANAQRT
Chain of Ephrin type-A receptor 2 (Homo sapiens) (P29317 whole entry): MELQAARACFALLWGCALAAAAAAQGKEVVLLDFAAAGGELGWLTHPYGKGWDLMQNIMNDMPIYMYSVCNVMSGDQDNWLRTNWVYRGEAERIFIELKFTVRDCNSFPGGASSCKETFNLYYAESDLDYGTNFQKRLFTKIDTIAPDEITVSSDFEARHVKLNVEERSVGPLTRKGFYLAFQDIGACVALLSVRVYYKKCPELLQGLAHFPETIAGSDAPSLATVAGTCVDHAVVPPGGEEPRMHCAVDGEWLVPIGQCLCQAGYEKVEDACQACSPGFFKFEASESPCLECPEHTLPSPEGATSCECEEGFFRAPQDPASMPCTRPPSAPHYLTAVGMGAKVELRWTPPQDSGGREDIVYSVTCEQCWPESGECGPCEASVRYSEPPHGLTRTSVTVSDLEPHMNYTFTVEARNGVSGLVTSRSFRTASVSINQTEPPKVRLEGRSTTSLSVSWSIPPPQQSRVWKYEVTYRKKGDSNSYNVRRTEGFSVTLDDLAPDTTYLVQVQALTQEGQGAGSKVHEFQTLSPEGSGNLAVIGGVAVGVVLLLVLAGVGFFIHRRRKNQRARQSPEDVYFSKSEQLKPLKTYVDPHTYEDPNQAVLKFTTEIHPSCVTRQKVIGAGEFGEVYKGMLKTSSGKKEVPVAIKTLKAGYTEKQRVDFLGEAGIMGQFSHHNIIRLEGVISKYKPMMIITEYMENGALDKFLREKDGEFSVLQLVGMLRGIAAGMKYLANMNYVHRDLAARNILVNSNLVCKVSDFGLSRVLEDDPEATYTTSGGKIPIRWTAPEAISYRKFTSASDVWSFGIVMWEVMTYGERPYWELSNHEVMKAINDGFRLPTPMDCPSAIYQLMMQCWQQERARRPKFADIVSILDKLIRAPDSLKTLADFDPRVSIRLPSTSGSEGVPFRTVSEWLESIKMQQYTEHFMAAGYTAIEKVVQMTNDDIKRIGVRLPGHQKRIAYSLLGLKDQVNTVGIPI
Chain of Serine/threonine-protein kinase PAK 2 (Homo sapiens) (Q13177 whole entry): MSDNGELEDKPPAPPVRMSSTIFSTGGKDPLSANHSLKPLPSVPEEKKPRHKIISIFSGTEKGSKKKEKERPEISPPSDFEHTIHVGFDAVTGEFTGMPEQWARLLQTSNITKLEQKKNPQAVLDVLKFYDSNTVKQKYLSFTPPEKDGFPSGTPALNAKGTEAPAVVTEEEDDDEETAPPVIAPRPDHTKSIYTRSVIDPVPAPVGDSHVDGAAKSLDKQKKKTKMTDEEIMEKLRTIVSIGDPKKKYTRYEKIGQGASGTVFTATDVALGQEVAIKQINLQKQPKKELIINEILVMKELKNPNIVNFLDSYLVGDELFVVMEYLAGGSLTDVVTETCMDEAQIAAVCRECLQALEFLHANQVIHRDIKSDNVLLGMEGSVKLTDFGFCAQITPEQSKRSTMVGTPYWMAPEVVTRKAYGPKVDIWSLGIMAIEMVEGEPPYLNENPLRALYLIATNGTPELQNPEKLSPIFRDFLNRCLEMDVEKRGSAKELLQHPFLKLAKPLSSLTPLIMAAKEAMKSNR
Chain of Activin receptor type-1-like (Homo sapiens) (P37023 whole entry): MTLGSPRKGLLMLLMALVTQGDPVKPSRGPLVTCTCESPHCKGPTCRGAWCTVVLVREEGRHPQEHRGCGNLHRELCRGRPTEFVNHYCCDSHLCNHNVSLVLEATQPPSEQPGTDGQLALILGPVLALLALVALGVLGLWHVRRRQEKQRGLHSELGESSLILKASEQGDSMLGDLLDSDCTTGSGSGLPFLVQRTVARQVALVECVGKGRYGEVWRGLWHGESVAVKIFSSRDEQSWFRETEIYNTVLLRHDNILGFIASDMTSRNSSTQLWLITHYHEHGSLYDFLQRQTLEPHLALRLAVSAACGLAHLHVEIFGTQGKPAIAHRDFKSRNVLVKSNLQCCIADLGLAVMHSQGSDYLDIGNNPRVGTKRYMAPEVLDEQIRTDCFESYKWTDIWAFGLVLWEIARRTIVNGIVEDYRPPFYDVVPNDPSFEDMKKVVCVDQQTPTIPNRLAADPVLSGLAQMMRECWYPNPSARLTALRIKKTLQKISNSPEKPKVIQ

Structure (SMILES)	Activity [1] [%]	Activity [2] [%]	Activity [3] [%]	Activity [4] [%]	Activity [5] [%]	Activity [6] [%]	Activity [7] [%]	Activity [8] [%]	Activity [9] [%]	Activity [10] [%]	Activity [11] [%]	Activity [12] [%]
COc1cc2nc(C)nc(N[C@H](C)c3cccc(-c4cn[nH]c4)c3)c2cc1OC	45	83	35	96	99	75	67	74	90	97	65	83
COc1cc2ncnc(N[C@H](C)c3cccc4ccccc34)c2cc1OC	94	100	100	92	100	82	82	93	100	95	97	89
